The source of these data is PMC11912224, “A general approach for activity-based protein profiling of oxidoreductases with redox-differentiated diarylhalonium warheads” (Chemical Science, 2025).

Holding throughout (assay): covalent labelling, streptavidin enrichment, LC-MS/MS
Common to all, as to settings: 30 uM probe, 1 h, mouse liver pieces

Assay [1] has as its target T1, aldehyde oxidase 1 (AOX1) (Mus musculus, UniProt O54754).
T1 construct: native, in intact mouse liver pieces
T1 sequence (O54754 1-1333): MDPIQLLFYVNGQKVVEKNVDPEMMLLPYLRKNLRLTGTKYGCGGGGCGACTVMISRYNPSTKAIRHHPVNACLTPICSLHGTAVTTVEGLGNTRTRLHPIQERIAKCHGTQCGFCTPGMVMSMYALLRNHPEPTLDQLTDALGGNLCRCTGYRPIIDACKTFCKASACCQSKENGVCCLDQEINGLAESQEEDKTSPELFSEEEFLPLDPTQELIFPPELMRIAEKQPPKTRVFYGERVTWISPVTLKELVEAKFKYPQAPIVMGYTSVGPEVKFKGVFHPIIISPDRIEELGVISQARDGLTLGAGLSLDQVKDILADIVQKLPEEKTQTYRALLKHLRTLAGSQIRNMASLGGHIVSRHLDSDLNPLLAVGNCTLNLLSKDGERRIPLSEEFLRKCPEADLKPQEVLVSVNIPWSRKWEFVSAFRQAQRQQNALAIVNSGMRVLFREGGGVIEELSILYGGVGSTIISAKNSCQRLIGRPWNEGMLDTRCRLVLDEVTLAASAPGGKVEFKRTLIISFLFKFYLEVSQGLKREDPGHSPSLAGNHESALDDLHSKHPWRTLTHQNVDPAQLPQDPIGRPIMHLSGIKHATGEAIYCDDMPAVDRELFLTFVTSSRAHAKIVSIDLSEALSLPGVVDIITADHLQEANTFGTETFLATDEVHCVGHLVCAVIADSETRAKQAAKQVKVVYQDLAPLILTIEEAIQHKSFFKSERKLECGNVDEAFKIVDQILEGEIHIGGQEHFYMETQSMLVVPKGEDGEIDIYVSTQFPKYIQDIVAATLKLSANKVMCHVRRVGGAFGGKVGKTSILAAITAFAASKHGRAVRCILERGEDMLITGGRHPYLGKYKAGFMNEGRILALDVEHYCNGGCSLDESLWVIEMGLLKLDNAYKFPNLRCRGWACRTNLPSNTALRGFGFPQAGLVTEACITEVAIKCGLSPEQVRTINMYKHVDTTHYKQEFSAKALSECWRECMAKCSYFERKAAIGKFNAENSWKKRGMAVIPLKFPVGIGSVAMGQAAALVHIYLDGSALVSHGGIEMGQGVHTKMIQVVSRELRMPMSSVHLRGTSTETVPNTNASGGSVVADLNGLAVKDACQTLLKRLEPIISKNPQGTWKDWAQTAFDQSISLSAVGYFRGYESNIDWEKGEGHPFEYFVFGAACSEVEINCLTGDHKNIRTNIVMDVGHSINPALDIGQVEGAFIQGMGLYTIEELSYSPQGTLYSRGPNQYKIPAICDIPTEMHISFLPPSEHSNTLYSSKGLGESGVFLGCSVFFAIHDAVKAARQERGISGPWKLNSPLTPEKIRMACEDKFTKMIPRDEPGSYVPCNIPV

The target in assay [2] is T2, monoamine oxidase A (MAOA) (Mus musculus, UniProt Q64133).
T2 construct: native, in intact mouse liver pieces
T2 sequence (Q64133 1-526): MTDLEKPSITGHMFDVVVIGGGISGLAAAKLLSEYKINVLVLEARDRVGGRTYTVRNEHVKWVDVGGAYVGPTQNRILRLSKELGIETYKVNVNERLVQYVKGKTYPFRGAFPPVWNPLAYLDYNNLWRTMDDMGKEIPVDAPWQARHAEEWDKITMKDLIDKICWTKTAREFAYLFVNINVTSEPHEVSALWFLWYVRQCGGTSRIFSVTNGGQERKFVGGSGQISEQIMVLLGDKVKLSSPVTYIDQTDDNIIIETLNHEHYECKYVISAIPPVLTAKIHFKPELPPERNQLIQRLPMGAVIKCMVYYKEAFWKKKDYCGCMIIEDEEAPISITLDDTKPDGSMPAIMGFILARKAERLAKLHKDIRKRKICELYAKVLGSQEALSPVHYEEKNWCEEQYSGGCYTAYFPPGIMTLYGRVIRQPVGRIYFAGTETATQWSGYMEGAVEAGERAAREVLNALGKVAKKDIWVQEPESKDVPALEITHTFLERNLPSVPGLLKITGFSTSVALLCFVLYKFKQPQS

For the next assay, the target named is T3, CYP2D10 (Mus musculus, UniProt P24456).
T3 construct: native, in intact mouse liver pieces
T3 sequence (P24456 1-504): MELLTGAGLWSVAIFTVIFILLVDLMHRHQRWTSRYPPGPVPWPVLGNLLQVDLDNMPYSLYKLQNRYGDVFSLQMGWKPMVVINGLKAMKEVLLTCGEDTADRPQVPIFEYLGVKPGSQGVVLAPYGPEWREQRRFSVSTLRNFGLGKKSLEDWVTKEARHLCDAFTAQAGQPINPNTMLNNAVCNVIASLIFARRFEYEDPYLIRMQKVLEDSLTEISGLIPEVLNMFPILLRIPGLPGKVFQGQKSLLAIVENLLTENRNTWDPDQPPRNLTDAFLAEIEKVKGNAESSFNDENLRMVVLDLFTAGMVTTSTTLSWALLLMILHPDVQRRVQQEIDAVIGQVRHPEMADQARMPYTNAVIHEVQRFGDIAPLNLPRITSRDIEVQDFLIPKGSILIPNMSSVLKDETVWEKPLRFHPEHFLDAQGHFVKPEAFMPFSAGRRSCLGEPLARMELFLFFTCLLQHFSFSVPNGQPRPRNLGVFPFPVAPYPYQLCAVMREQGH

Assay [3] has as its target T4, glycerol-3-phosphate dehydrogenase mitochondrial (GPD2) (Mus musculus, UniProt Q64521).
T4 construct: native, in intact mouse liver pieces
T4 sequence (Q64521 43-727): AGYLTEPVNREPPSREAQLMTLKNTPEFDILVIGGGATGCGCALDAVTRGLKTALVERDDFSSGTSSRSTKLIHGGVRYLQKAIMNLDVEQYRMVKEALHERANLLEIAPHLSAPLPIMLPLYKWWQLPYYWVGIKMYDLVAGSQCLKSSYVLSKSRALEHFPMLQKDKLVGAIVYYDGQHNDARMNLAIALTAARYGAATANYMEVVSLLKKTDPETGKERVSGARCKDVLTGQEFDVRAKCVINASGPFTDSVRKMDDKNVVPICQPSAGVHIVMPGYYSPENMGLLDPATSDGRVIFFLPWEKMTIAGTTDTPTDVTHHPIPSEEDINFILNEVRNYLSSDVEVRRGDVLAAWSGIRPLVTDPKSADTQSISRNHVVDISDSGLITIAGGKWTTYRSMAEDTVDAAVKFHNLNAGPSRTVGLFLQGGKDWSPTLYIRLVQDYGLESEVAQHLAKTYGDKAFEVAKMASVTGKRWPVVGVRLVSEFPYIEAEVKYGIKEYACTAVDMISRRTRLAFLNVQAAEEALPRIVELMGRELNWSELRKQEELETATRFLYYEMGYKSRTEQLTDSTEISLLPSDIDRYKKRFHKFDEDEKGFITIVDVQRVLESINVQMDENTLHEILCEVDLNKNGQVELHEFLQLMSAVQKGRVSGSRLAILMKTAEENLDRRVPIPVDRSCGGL

Assay [4] has as its target T5, choline dehydrogenase (CHDH, mCHDH) (Mus musculus, UniProt Q8BJ64).
T5 construct: native, in intact mouse liver pieces
T5 sequence (Q8BJ64 35-596): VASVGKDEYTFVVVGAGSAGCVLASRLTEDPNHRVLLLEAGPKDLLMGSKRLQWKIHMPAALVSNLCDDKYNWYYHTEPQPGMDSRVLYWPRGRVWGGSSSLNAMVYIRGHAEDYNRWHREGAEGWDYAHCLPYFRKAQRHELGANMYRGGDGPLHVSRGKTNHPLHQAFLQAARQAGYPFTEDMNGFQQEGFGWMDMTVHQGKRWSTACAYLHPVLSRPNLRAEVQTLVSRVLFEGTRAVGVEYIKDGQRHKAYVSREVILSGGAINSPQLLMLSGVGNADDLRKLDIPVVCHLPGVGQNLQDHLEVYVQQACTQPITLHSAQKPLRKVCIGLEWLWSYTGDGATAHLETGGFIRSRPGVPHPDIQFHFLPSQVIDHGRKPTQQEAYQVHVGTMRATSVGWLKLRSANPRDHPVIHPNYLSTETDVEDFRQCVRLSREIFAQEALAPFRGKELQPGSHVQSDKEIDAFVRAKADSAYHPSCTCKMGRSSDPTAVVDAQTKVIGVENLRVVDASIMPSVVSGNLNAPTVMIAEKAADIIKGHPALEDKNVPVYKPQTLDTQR

For `[N-]=[N+]=NCCCCCCCCCCNC(=O)c1ccc2c(c1)[I+]c1ccccc1-2` [3da, diphenyleneiodonium-based probe 3da], the “covalent labelling, streptavidin enrichment, LC-MS/MS” value (“covalent labelling” for short) in assay [1] was “five are oxidoreductases (CYP27A1, CYP2D10, CYP3A25, HMOX2, and AOX1)”.
For the compound `[N-]=[N+]=NCCOCCOCCOCCNC(=O)c1ccc2c(c1)-c1ccccc1[Br+]2` [3fb, diphenylenebromonium probe 3fb], in assay [2], the “covalent labelling” value was “MAOA exclusively by diarylbromonium probe 3fb”.
For `[N-]=[N+]=NCCCCCCCCCCNC(=O)c1ccc2c(c1)[Br+]c1ccccc1-2` [3ga, diphenylenebromonium-based probe 3ga], the “covalent labelling” value at CYP2D10 is listed as “two significantly enriched CYP450s (CYP27A1, CYP2D10)”; in assay [3], “GPD2 was exclusively enriched by diarylbromonium probe 3ga”.
On to `[N-]=[N+]=NCCCCCCCCCCNC(=O)c1ccc2c(c1)-c1ccccc1[Cl+]2` [3ha, diphenylenechloronium-based probe 3ha], for which the “covalent labelling” value in assay [4] was “choline dehydrogenase (CHDH), which is similar to the bacterial choline oxidase”.
